Assay results from ChEMBL document CHEMBL1135778, “Synthesis and molecular modeling of new 1-aryl-3-[4-arylpiperazin-1-yl]-1-propane derivatives with high affinity at the serotonin transporter and at 5-HT(1A) receptors” (J Med Chem, 2002).

How the values were obtained:
[1] = target: Sodium-dependent serotonin transporter (Rattus norvegicus, UniProt P31652); assay: Binding affinity towards Serotonin transporter (5-HTT) in rat frontal cortex homogenates; format: tissue-based
[2] = target: T1, 5-hydroxytryptamine receptor 1A (Rattus norvegicus, UniProt P19327); assay: Binding affinity towards 5-hydroxytryptamine 1A receptor in rat frontal cortex homogenates; format: tissue-based
T1 sequence (P19327 whole entry): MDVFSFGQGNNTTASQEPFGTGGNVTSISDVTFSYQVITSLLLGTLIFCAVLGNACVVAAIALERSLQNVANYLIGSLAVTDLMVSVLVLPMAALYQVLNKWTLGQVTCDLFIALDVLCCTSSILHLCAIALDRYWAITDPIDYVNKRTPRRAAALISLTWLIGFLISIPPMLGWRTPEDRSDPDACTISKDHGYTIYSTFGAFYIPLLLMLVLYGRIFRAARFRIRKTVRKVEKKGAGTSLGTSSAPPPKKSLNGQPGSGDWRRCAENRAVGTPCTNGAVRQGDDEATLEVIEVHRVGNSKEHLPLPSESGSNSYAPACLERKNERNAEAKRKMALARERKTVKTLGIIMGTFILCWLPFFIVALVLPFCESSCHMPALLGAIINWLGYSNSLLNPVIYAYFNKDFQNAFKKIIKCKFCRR

[3] = target: T2, 5-hydroxytryptamine receptor 1A (Mus musculus) (UniProt Q64264); assay: Antagonist activity at 5-hydroxytryptamine 1A receptor against (+)-8-OH-DPAT induced hypothermia in mice at 1 mg/kg after 15 min; format: functional, organism-based; design: dose 1 mg/kg
T2 sequence (whole entry): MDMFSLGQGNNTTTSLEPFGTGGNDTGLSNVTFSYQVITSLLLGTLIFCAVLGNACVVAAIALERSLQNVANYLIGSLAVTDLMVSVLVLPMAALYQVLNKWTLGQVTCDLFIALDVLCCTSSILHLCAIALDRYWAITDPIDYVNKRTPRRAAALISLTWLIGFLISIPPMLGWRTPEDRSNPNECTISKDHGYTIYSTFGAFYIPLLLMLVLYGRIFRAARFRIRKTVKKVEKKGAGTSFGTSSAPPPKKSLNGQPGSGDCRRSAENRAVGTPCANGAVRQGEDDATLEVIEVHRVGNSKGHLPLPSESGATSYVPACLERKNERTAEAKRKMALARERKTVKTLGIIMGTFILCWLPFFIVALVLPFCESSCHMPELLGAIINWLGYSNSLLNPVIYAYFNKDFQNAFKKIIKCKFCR

[4] = target: T2, 5-hydroxytryptamine receptor 1A (Mus musculus); assay: Antagonist activity at 5-hydroxytryptamine 1A receptor against (+)-8-OH-DPAT induced hypothermia in mice at 10 mg/kg after 15 min; format: functional, organism-based; design: dose 10 mg/kg
[5] = target: T3, 5-hydroxytryptamine receptor 1A (Rattus norvegicus) (UniProt P19327); assay: Percent increase of R(+)-8-OH-DPAT stimulated [35S]GTP-gamma-S, binding to 5-hydroxytryptamine 1A receptor in isolated rat hippocampal membranes; format: functional, cell membranes; details: Membrane
T3 sequence (whole entry): T1 sequence (P19327 whole entry)

[6] = target: T2, 5-hydroxytryptamine receptor 1A (Mus musculus); assay: Antagonist activity at 5-hydroxytryptamine 1A receptor against (+)-8-OH-DPAT induced hypothermia in mice at 1 mg/kg after 30 min; format: functional, organism-based; design: dose 1 mg/kg
[7] = target: T3, 5-hydroxytryptamine receptor 1A (Rattus norvegicus); assay: Antagonist activity to stimulate binding of [35S]GTP-gamma-S, to 5-hydroxytryptamine 1A receptor in isolated rat hippocampal membranes; format: functional, cell membranes; details: Membrane, scale: (fM of GTP-gammaS bound)
[8] = target: T3, 5-hydroxytryptamine receptor 1A (Rattus norvegicus); assay: Inhibition of (+)-8-OH-DPAT stimulated [35S]GTP-gamma-S, binding in rat hippocampal membranes; format: functional, cell membranes; details: Hippocampus, Membrane, scale: (fM of GTP-gammaS bound)
[9] = target: T3, 5-hydroxytryptamine receptor 1A (Rattus norvegicus); assay: Percent inhibition of (+)-8-OH-DPAT stimulated [35S]GTP-gamma-S, binding to 5-hydroxytryptamine 1A receptor in hippocampal membranes; format: functional, cell membranes; design: concentration or dose not given beside the values; details: concentration not given here
[10] = target: T2, 5-hydroxytryptamine receptor 1A (Mus musculus); assay: Antagonist activity at 5-hydroxytryptamine 1A receptor against (+)-8-OH-DPAT induced hypothermia in mice at 1 mg/kg after 60 min; format: functional, organism-based; design: dose 1 mg/kg
[11] = target: T3, 5-hydroxytryptamine receptor 1A (Rattus norvegicus); assay: Antagonist activity to stimulate binding of [35S]-GTP-gamma S binding to 5-hydroxytryptamine 1A receptor in isolated rat hippocampal membranes; format: functional, cell membranes; details: Membrane, scale: (fM of GTP-gammaS bound)
[12] = target: T2, 5-hydroxytryptamine receptor 1A (Mus musculus); assay: Antagonist activity at 5-hydroxytryptamine 1A receptor against (+)-8-OH-DPAT induced hypothermia in mice at 10 mg/kg after 60 min; format: functional, organism-based; design: dose 10 mg/kg
[13] = target: T2, 5-hydroxytryptamine receptor 1A (Mus musculus); assay: Antagonist activity at 5-hydroxytryptamine 1A receptor against (+)-8-OH-DPAT induced hypothermia in mice at 10 mg/kg after 30 min; format: functional, organism-based; design: dose 10 mg/kg
[14] = target: T1, 5-hydroxytryptamine receptor 1A; assay: Inhibition of (+)-8-OH-DPAT stimulated [35S]GTP-gamma-S, binding to 5-hydroxytryptamine 1A receptor in hippocampal membranes; format: functional, cell membranes

Chain of Sodium-dependent serotonin transporter (P31652 whole entry): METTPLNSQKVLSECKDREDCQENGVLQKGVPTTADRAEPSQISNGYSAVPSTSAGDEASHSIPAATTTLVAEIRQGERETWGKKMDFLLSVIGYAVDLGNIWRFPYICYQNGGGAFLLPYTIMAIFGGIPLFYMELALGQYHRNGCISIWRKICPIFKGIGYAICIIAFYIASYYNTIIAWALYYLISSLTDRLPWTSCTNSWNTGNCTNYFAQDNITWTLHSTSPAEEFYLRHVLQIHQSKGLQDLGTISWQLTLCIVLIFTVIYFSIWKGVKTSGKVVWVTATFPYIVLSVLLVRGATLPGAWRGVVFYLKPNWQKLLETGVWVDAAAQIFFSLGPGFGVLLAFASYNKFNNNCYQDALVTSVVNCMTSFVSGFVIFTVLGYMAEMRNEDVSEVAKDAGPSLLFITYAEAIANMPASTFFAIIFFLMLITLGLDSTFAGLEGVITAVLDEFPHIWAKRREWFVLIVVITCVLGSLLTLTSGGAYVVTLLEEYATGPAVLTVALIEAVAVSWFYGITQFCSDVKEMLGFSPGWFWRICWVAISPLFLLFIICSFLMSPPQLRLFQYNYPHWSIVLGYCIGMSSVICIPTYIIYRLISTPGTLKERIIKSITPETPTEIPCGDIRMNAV

SMILES | Ki [1] [nM] | Ki ([2]; read-out: Ki) [nM] | Change in body temperature [3] [°C] | Change in body temperature [4] [°C] | Increase [5] [%] | Change in body temperature [6] [°C] | Basal [7] | Basal [8] | Max [8] | inhibition [9] [%] | Change in body temperature [10] [°C] | Max [11] | Change in body temperature [12] [°C] | Change in body temperature [13] [°C] | IC50 [14] [nM] | Ki [2] [nM]
OC(CCN1CCN(c2ccc3sccc3c2)CC1)c1csc2ccccc12 (stereo not given) | 3.2 | 913 |  |  |  |  |  |  |  |  |  |  |  |  |  | 
OC(CCN1CCN(c2cccc3[nH]ccc23)CC1)c1csc2ccccc12 (stereo not given) |  |  | -2.08 | -1.03 | 26.3 | -1.59 | 13.4 | 12.8 | 13.9 | 90 | -1.13 | 16.9 | -0.8 | 0.84 | 31.2 | 
OC(CCN1CCN(c2cccc3c2OCO3)CC1)c1csc2ccc(F)cc12 (stereo not given) | 58 | 9.4 |  |  |  |  |  |  |  |  |  |  |  |  |  | 
CCCN(CCC)C1CCc2cccc(O)c2C1 (stereo not given) |  |  |  |  | 91.8 |  | 13.5 | 13 | 23.8 |  |  | 25.9 |  |  |  | 
OC(CCN1CCN(c2cccc3cccnc23)CC1)c1csc2ccccc12 (stereo not given) | 24 | 6.3 | -2.38 | -0.8 | 31 | -1.86 | 11.9 | 16.4 | 19.7 | 69 | -1.09 | 15.6 | -0.2 | -0.52 | 18 | 
OC(CCN1CCN(c2cccc3ccccc23)CC1)c1csc2ccc(F)cc12 (stereo not given) | 6 |  |  |  |  |  |  |  |  |  |  |  |  |  |  | 
OC(CCN1CCN(c2cnc3ccccc3c2)CC1)c1csc2ccccc12 (stereo not given) | 4.2 | 995 |  |  |  |  |  |  |  |  |  |  |  |  |  | 
OC(CCN1CCN(c2cccc3c2OCCCO3)CC1)c1csc2ccc(F)cc12 (stereo not given) | 21.2 | 3 |  |  | 22.8 |  | 14.4 | 18.7 | 20.4 | 84 |  | 17.7 |  |  | 360 | 
OC(CCN1CCN(c2cccc3ncccc23)CC1)c1csc2ccccc12 (stereo not given) | 32.5 | 36.8 |  |  |  |  |  |  |  |  |  |  |  |  |  | 
OC(CCN1CCN(c2cccc3cccnc23)CC1)c1csc2ccc(F)cc12 (stereo not given) |  |  |  |  | 71.4 |  | 13.9 |  |  |  |  | 23.9 |  |  |  | 
OC(CCN1CCN(c2cccc3ccccc23)CC1)c1csc2ccccc12 (stereo not given) | 81.7 | 66.7 |  |  |  |  |  |  |  |  |  |  |  |  |  | 
OC(CCN1CCN(c2cccc3[nH]ccc23)CC1)c1csc2ccc(F)cc12 (stereo not given) |  |  | -3.28 | -0.95 | 35.5 | -3.61 | 10.1 | 11.2 | 10.1 | 110 | -2.72 | 13.7 | -0.95 | -0.89 | 16.1 | 
OC(CCN1CCN(c2cccc3c2OCCO3)CC1)c1csc2ccccc12 (stereo not given) | 50 | 5.7 | -2.9 | -1.38 | 3.4 | -2.47 | 15.6 | 18.5 | 19.1 | 90 | -1.94 | 16.1 | -0.5 | -1.03 | 56.2 | 
OC(CCN1CCN(c2cccc3c2OCCCO3)CC1)c1csc2ccccc12 (stereo not given) | 77 |  |  |  |  |  |  |  |  |  |  |  |  |  |  | 1.9
OC(CCN1CCN(c2cccc3c2OCCO3)CC1)c1csc2ccc(F)cc12 (stereo not given) | 16 |  | -1.49 | -1.33 | 17.9 | -1.04 | 11.9 | 19.1 | 18.9 | 101 | -1.04 | 14 | -0.84 | -0.72 | 31.2 | 
